In patent publication US20090028842A1, “Dekkera/Brettanomyces Cytosine Deaminases And Their Use” (ZGene A/S, priority 2005, published 2009):

Experiments:
D. bruxellensis = test: Growth of D. bruxellensis on plates containing 5-FC; assay type: cell-based, Dekkera bruxellensis; details: after 5 days
Experimental: (§1) The yeast strains used in this work are: Dekkera bruxellensis (Y872, CBS 1943), D. bruxellensis (Y879, CBS 2499), D. bruxellensis (CBS 4480, CBS 4481), D. anomala (CBS 76, CBS 77, CBS 1938, CBS 1947), Brettanomyces nanus (CBS 1945), B. nanus (CBS 1955, CBS 1956), M. reukauffii (CBS 2266), B. custersianus (CBS 4805), B. naardensis (CBS 6042), S. kluyveri Y057 (NRRL Y-12651), and S. cerevisiae Y051 (NRRL Y-12632). Yeast strains were grown at 25° in YPD medium (1% yeast extract, 2% bacto peptone, 2% glucose) or in defined minimal (SD) medium (1% succinic acid, 0.6% NaOH, 2% glucose, 0.67% yeast nitrogen base without amino acids from Difco). When indicated, (NH4)2SO4 was replaced with 0.1% cytosine as the sole nitrogen source giving N-minimal medium. The growth rate was determined in liquid medium by following the optical density at 600 nm. The E. coli strain TOP10 (Invitrogen) was used for plasmid amplification. Bacteria were grown at […] in Luria-Bertani medium supplemented with 100 mg/l of ampicillin for selection. The E. coli BL21-DE3 (Invitrogen) strain was used for heterologous protein expression.
(§2) The majority of yeast can utilize cytosine as sole source of nitrogen by using CD to cleave cytosine to ammonia (a source of nitrogen) and uracil. To test for the ability of Dekkera yeast for growth on cytosine, Y872 was spotted on N-minimal media containing 0.1% cytosine. […]

S. cerevisiae = test: Growth of S. cerevisiae on plates containing 5-FC; assay type: cell-based, Saccharomyces cerevisiae
Experimental: as §1, §2

[1] = system: MCF7 cell line transduced with Db CD gene; test: XTT cell proliferation assay, MCF7 transduced with D. bruxellensis cytosine deaminase; assay type: cell-based, human
From the text: (§3) ORFs were amplified with Accuzyme DNA polymerase (Bioline) using primers with designed flanking restriction enzyme sites and containing Kozak sequence at 5′ end. D. bruxellensis CD constructs were cloned into the retrovirus vector pLCXSN. The vector is based on pLXSN (Clontech) to which the CMV promoter has been cloned into the polylinker site to form pLCXSN. The constructs obtained was named DbCDCvir (PZG917). pLCXSN alone was used as a control. The plasmids were purified using the Qiagen plasmid kit (QIAGEN) and DNA sequences were verified by DNA sequence determination. HE 293 T packaging cells (ATCC CRL-11268) were cultured at 37° C. in OPTIMEM 1 medium (Life Technologies, Inc.) The constructed retrovirus vectors were transfected into the packaging cells using LipofectAMINE PLUS (Life Technologies, Inc.) according to the protocol provided by the supplier. The medium from the transfected cells was collected 48 hours after transfection, filtered through a 0.45 μm filter, pelleted by ultracentrifugation (50.000×g, 90 minutes at 4° C.) and dissolved in D-MEM.
(§4) Cancer cells were purchased from the American Type Culture Collection. Cells were cultured in RPMI, E-MEM or D-MEM with 10% (v/v) Australian originated foetal calf serum and 1 ml/l of gentamicin. Cells were grown at 37° C. in a humidified incubator with a gas phase of 5% CO2. The cells were transduced with the retrovirus containing medium mixed with 5 μg/ml of Polybrene, incubated for 48 hours and then cultured continuously for 3 weeks in the presence of 300-400 μg/ml Genetecin® (Life Technologies Inc.).
(§5) Cells were plated at densities range of 1.500-3.500 cells/well in 96-well plates coated with poly-L-lysine (Sigma). 5-FC was added after 24 hours of incubation. Each experiment was performed in four replicates. Cell survival was assayed after 96-120 hours of drug exposure by XTT cell proliferation kit (Roche). The data was corrected for background media-only absorbance where after the 50% cell killing drug concentration (IC50 value) was calculated using SigmaPlot® (SPSS Science, Dyrberg Trading, Denmark).

[2] = system: Dekkera/Brettanomyces strains; test: Growth of various Dekkera/Brettanomyces strains on plates containing 5-FC; assay type: cell-based; details: all tested Dekkera and Brettanomyces species, after 5 days
Experimental: as §1
(§6) In FIG. 2 it can be seen that all the tested Dekkera/Brettanomyces strains are particularly susceptible to 5-FC, as growth is inhibited at 0.1 or at least at 0.36 μM 5.FC. For comparison, S. cerevisiae (FIG. 1) and M. reukauffii (FIG. 2) strains are included.

Metschnikowia reukauffii = test: Growth of control strain Metschnikowia reukauffii on plates containing 5-FC; assay type: cell-based; details: 0.1 or 0.36 μM 5-FC, 5 days
Experimental: as §1, §6

PANC-1 = test: XTT cell proliferation assay, untransduced PANC-1; assay type: cell-based; details: Homo sapiens; untransduced PANC-1, 96-120 hours of drug exposure
Experimental: as §4, §5

[3] = system: MCF7 cell line transduced with pLCXSN; test: XTT cell proliferation assay, MCF7 transduced with empty vector pLCXSN; assay type: cell-based; details: Homo sapiens
From the text: as §3
Cancer cells were purchased from the American Type Culture Collection. Cells were cultured in RPMI, E-MEM or D-MEM with 10% (v/v) Australian originated foetal calf serum and 1 ml/l of gentamicin. Cells were grown at 37° C. in a humidified incubator with a gas phase of 5% CO2. […]

U87MG = test: XTT cell proliferation assay, untransduced U87MG; assay type: cell-based; details: Homo sapiens, U-87 MG, 96-120 hours of drug exposure
Experimental: as §4, §5

MCF7 = test: XTT cell proliferation assay, untransduced MCF7; assay type: cell-based; details: Homo sapiens; untransduced MCF7, 96-120 hours of drug exposure
Experimental: as §4, §5

HT-29 = test: XTT cell proliferation assay, untransduced HT-29; assay type: cell-based; details: Homo sapiens; untransduced HT-29, 96-120 hours of drug exposure
Experimental: as §4, §5

[4] = system: Dekkera/Brettanomyces yeasts; test: Sensitivity of Dekkera/Brettanomyces yeasts to G418; assay type: cell-based; details: addition of 200 μg/ml; almost all yeasts tested
From the text: There are no suitable auxotrophic markers or efficient transformation system to work with these yeasts. […] Using degenerative primers described in this study it was not possible to amplify CD genes from D. anomala, B. nanus, B. naardenensis and B. custersianus probably due to presence of introns in these genes. Therefore we designed a selection system based on Dekkera bruxellensis CD1 promoter and G418 resistance marker coding for 3′aminoglycoside-phosphotransferase. G418 is a ribosomal inhibitor in many eukaryotic cells but many yeast species are not sensitive to G418. However, almost all Dekkera/Brettanomyces yeasts tested were sensitive to addition of 200 μg/ml. Since G418 cannot be used in medium with high salt concentration (like SD medium) use of CD1 promoter which had activity in YPD medium (low salt) will permit expression of G418 gene and ultimately lead to resistance to G418 and enable direct selection of yeast colonies containing this gene. Cloning strategy was as described: pYES2 vector was cut with AgeI/HindIII restriction enzymes and fragment of app. 440 bp containing GAL promoter was removed. Promoter of 1075 bp from Y872 CD1 gene was cloned into AgeI/HindIII site resulting in pDbCD1p plasmid. The ORF from G418 gene (Acc. nr. S78175) was cloned under control of CD1 promoter into BamHI/EcoRI site. […]

[5] = CD activities with purified his-tagged proteins; assay type: biochemical; details: purified his-tagged protein, 37° C., cytosine 500 μM, triplicates, mean with standard deviation
Experimental: For recombinant protein expression, E. coli cells were grown to a density of A600 nm=0.5-0.6 in LB medium supplemented with 100 μg/ml ampicillin, and the expression was induced with 10 μM IPTG for 8 h at 25° C. The cells were harvested by centrifugation, and the pellet was resuspended in 25 ml ice-cold binding buffer A […] (50 mM sodium phosphate pH 8.0; 300 mM NaCl; 10% glycerol; 25 mM imidazole) containing protease inhibitor cocktail (Complete™-EDTA free from Roche Diagnostics). The cells were homogenized using a French Press, subjected to centrifugation at 12,000×g for 30 minutes (4° C.), filtered through a […] Whatman glass microfiber filter and a […] cellulose acetate filter, and loaded onto a 5 ml Ni^2+-NTA column (Qiagen). […]
Bacteria or cell lines were grown as described, harvested and stored at −80° C. until activity testing. […] Cytosine deaminase activities were determined spectrophotometrically by monitoring the absorbance decrease at 286 nm (Δε286=−0.68 mM^−1 cm^−1) resulting from the deamination of cytosine to uracil. […]
To characterize the substrate specificities of yeast CDs, purified proteins were measured at 37° C. and fixed cytosine concentration and assays was performed as described in Example 1 (Enzyme assays) (Table 3).

[6] = assay type: physicochemical
Experimental: Purified and his-tagged CD from D. bruxellensis and S. cerevisiae CD were assayed after different periods of storage at 50° C. and 37° C. (FIGS. 8a and 8b). Indeed, D. bruxellensis CD was extremely stable at 50° C. when compared to S. cerevisiae CD which lost all activity after only 4 minutes. Half life for D. bruxellensis CD at 50° C. was app. 3 hours (FIG. 8a). […] It should be observed that the temperature stability of the proteins without his-tags could be different.

Nc1nc(=O)[nH]cc1F [5-FC, 5-fluorocytosine]
5-FC concentration at which growth inhibition was observed (D. bruxellensis): 0.1 µM
5-FC concentration at which there was no visible growth (D. bruxellensis): 0.36 µM
Growth on plates with 5-FC (S. cerevisiae; S. cerevisiae control strain, 0.1 or 0.36 μM 5-FC, 5 days): not inhibited
5-FC concentration at which growth was first inhibited (S. cerevisiae; S. cerevisiae, plates, after 5 days): 1 µM
IC50 ([1]; Homo sapiens, MCF7, MCF7 transduced with D. bruxellensis cytosine deaminase): 2.4 mM
IC50 ([1]; MCF7 transduced with D. bruxellensis cytosine deaminase): 2.44 mM
sensitivity increase towards 5-FC ([1]; MCF7 with Db CD versus empty vector): 4 fold
5-FC concentration at which growth inhibition was observed [2]: ≤ 0.36 µM
Growth on plates with 5-FC (Metschnikowia reukauffii): not inhibited
IC50 (PANC-1): 2 to 5 mM
IC50 [3]: 9.29 mM
IC50 (U87MG): 2 to 5 mM
IC50 (MCF7): 2 to 5 mM
IC50 (HT-29): 2 to 5 mM

CN[C@@H]1[C@@H](O)[C@@H](O[C@@H]2[C@@H](O)[C@H](O[C@H]3O[C@H]([C@@H](C)O)[C@@H](O)[C@H](O)[C@H]3N)[C@@H](N)C[C@H]2N)OC[C@]1(C)O [G418]
Sensitivity to G418 [4]: sensitive

B1: Db CD (PZG893): cytosine deaminase from Dekkera bruxellensis (SEQ ID NO 2), recombinant his-tagged protein (protein, listed as Dekkera bruxellensis)
chain: MTFDDKLGMQVAFEEAKKGFEEGGVPIGACLLTEEGKVIGRGHNMRVQKSSATLHGETSCFENAGRLPASVYKKCTLYTTLSPCSMCSGAALLFKIPRIVLGENETFVGAEKWLESNGVEVVNVHNKECKNLMDRFIKEKPEVWNEDIGE
modifications: His tag
CD activity, Cytosine [5]: 176.5 ± 5.3 U/mg/min
Half life [6]: ~3 h
Stability compared to S. cerevisiae CD [6]: more stable
